From patent US20240366555A1, “SELECTIVE MTORC2 INHIBITOR AND USES THEREOF” (ALIAD BIOPHARMA, priority 2021, published 2024)
Like-named read-outs stand apart in the source and are kept apart here.

Key:
[1] = tested on: mTORC2 signaling (Fox03a location); test: Fox03a intracellular location by immunofluorescent staining in A549; type: cell-based, human; conditions: A549 cells, treated for 3 hours; FIG. 7c
Excerpt: mTORC2 activates SGK3, and SGK3 phosphorylates Fox03a, allowing Fox03a to remain in the cytoplasm. When mTORC2 is inhibited, Fox03a is dephosphorylated and translocated to the nucleus, and in the nucleus, it binds to FHRE located in a gene promoter to induce gene expression. Therefore, the change in the intracellular location of Fox03a and FHRE dependent gene expression become indicators for evaluating mTORC2 activity. In order to evaluate the effect of norathyriol on the mTORC2 activity, norathyriol was treated to A549, and then the change in the intracellular location of Fox03a was investigated by immunofluorescent staining.
Specifically, the A549 cells of 1×10^5 were seeded in a confocal dish coated with 35 mm collagen and cultured for 1 day. After treating norathyriol, the cells were fixed with 4% paraformaldehyde at 4° C. for 15 minutes. After treating PBS containing 0.5% Triton X-100 (PBS-T) at a room temperature for 5 minutes for permeabilization, PBS containing 5% normal goat serum and 1% gelatin was treated at a room temperature for 30 minutes for blocking. The Fox03a antibody diluted in 1% BSA was treated at a room temperature for 1 hour. After washing the culture dish with PBS-T, an FITC conjugated anti-rabbit secondary antibody diluted in 1% BSA was treated at a room temperature for 50 minutes. […]

mTORC2 = mTORC2 (Homo sapiens, UniProt P42345); test: LocaTOR2 assay in A549 cells (FRB-AKT2 Ser473 phosphorylation); type: cell-based; design: endogenous in cells; host or cells: A549 (transfected only with the FKBP-recruiter and the FRB-AKT2 reporter); conditions: for IC50: FIG. 9g
Excerpt: mTORC2 is located in the cell membrane, endosome, ER and mitochondrial membrane. mTORC2 forms an mTORC2 complex as an activated form of ras (ras-GTP) operates as a scaffold in the cell membrane, whereas it forms an mTORC2 complex as mLST8 operates as a scaffold in the endosome. By this difference, the mTORC2 inhibitory effect of norathyriol may be shown differently depending on the subcellular compartment where mTORC2 is located. In order to investigate the mTORC2 inhibitory effect of norathyriol depending on the subcellular compartment location, in vivo LocaTOR2 assay was performed (Ebner et al. (2017) J. Cell Biol. 216:343-353). After introducing FKBP-recruiter selectively located in the membrane of the subcellular compartment and FRB^T2098L-AKT2 which is an mTORC2 substrate, AP21967 was treated for 40 minutes to induce binding between the FKBP-recruiter and FRB-AKT2, and FRB-AKT2 was moved to a specific subcellular compartment. In addition, the degree of phosphorylation of Ser473 of FRB-Akt by mTORC2 located in the site thereof was investigated by immunoblot analysis.

Pten KO mice [2] = test: Elevated plus maze test in Pten KO mice; type: in vivo; conditions: Pten KO mice administered athyriol; FIG. 2
Experimental: (§1) As Pten KO mice, Ptenf/f_cre/cre KO mice or Ptenf/f_cre/++ Het mice (KD) were obtained by mating Pten floxed/floxed mice and CAMKII-cre mice. DMSO or athyriol was intraperitoneally injected at 5 or 10 mg/kg for 2 weeks from the age of mice of 6 weeks, and a behavioral test was performed in 7 days after administration. Pten floxed/floxed mice were used as littermates of the same age as a normal control group.
In order to confirm whether emotional instability was improved, when athyriol was administered to an autism spectrum disorder animal model, Pten KO mice, an elevated plus maze test was performed. An anxiety disorder animal model behavioral test was evaluated as a tendency to avoid an open arm exposed to the elevated-plus maze and stay in a closed arm. Analysis was conducted with a video tracking system (Ethovision EPM program, Noldus information technology, Wageningen, Netherlands). In the elevated plus maze test measuring emotional instability disorder, when the emotional anxiety increases, the time spent in the closed arm increases compared to the time spent in the open arm.

Pten KO mice [3] = test: Macrocephaly alleviation (brain weight) in Pten KO mice; type: in vivo; design: average brain weight: unit not given here; conditions: for average brain weight: FIG. 5
Experimental: as §1
When athyriol was administered into Pten KO mice, whether the weight of brain increased compared to a mouse without Pten knockout was reduced was confirmed. In other words, whether athyriol had efficacy of alleviating macrocephaly symptoms was confirmed through the following experiment.
Specifically, the body weight was measured after the aforementioned behavioral test of Experimental examples 1-2 to 1-6, and then animals were sacrificed. After removing the skull, the brain including forebrain, midbrain and hindbrain was extracted and the ratio of brain weight to body weight and the body weight were measured.

normal mice = test: Y-type maze test in normal mice; type: in vivo; conditions: 5 mg/kg intraperitoneally, FIG. 14a
Experimental: A Y-maze was performed in a Y-shaped structure maze made of black acrylic material in which an angle of each arm was 120°, and a light and a cam were installed on the ceiling, and it was checked that white mice entered each arm while the surroundings were covered with a curtain. Through this, short-term memory was analyzed. In order to adapt mice to the environment, they were acclimated to the experimental space for 30 minutes. The mice were placed at one end of the maze and allowed to move freely for 12 minutes. Accuracy was measured by dividing time into 8 minutes, 10 minutes and 12 minutes. When the four paws of the mice entered the entrance, it was considered as completely entered. The percentage of accuracy was calculated as the number of times which a mouse entered each maze without repetition. […]
In order to verify this possibility, the efficacy of athyriol on memory ability and sociability of normal animals was investigated. A vehicle (30% DMSO) or athyriol was intraperitoneally injected at a dose of 5 mg/kg into normal mice (n=10), and from the 7th day after administration, the memory ability was evaluated by the same method as the Y-type maze test of Experimental example 1-2, and the sociability was evaluated by the same method as the 3 chamber test of Experimental example 1-6.

SMILES	intracellular location of Fox03a [1]	FRB-AKT2 Ser473 phosphorylation, mitochondria (mTORC2; A549, Bcl-XL-FKBP recruiter, FIG. 9e)	FRB-AKT2 Ser473 phosphorylation, mTORC2 located in cell membrane (mTORC2; A549, KRas4B^C30-FKBP recruiter, AP21967, norathyriol at 30 μM and 60 μM, FIG. 9a)	FRB-AKT2 Ser473 phosphorylation, mTORC2 located in early endosome (mTORC2; A549, Rab5-FKBP recruiter, FIG. 9b)	FRB-AKT2 Ser473 phosphorylation, mTORC2 located in late endosome (mTORC2; A549, Rab7-FKBP recruiter, FIG. 9c)	FRB-AKT2 Ser473 phosphorylation, mTORC2 located in recycling endosome (mTORC2; A549, Rab11-FKBP recruiter, FIG. 9d)	FRB-AKT2 Ser473 phosphorylation, ER (mTORC2; A549, TcRb-FKBP recruiter, FIG. 9f)	IC50 (mTORC2; mTORC2 located in cell membrane (plasma membrane), read-out: IC50, mTORC2, PM)	IC50 (mTORC2; mTORC2 located in early endosome, read-out: IC50, mTORC2, EE)	IC50 (mTORC2; mTORC2 located in late endosome, read-out: IC50, mTORC2, LE)	IC50 (mTORC2; mTORC2 located in recycling endosome, read-out: IC50, mTORC2, RE)	reduction of time spent in the closed arm (Pten KO mice [2])	time in the center zone (Pten KO mice [2])	brain weight corrected by body weight, increase compared to control group (Pten KO mice [3]; 5 mg/kg)	average brain weight (Pten KO mice [3]; 5 mg/kg for 14 days)	brain weight corrected by body weight, increase compared to control group (Pten KO mice [3]; 10 mg/kg)	average brain weight (Pten KO mice [3]; 10 mg/kg for 14 days)	alleviation of macrocephaly symptoms (Pten KO mice [3]; 5 or 10 mg/kg for 14 days)	improvement of memory ability in Y-type maze test compared to vehicle control (normal mice)
O=c1c2cc(O)c(O)cc2oc2cc(O)cc(O)c12 [norathyriol, 1,3,6,7-tetrahydroxy-9H-xanthen-9-one]	moved to the nucleus	reduced	not reduced	reduced at a significant level	reduced at a significant level	reduced at a significant level	reduced	> 60 µM	< 30 µM	< 30 µM	40 µM								
COc1cc(O)c2c(=O)c3cc(O)c(O)cc3oc2c1 [athyriol, 1,6,7-Trihydroxy-3-methoxy-9H-xanthen-9-on]												15%	recovered to the normal control group level	about 1.3 times	517	~1.26 times	515	≥ 68%	≥ 25%
